Results on nine compounds are retold here after patent publication US20090104633A1, “Kit for Highly Sensitive Detection Assays” (priority 2005, published 2009).

One series deals with T1, insulin (Bos taurus, UniProt P01317).
T1 construct: 2 NH2-termini (chain A and B), 1 lysine side chain; purchased Sigma-Aldrich, Taufkirchen, FRG
Nature of the series: Mean degree of derivatization of insulin with active esters (MALDI-TOF-MS). Also noted: species or system bovine. The note with it: 35 nMoles insulin reacted with 350 nMoles active ester, pH 7.2, 90 min RT; three independent experiments. As to the method: (§1) Stock solutions of active esters of the labelling compounds summarized in Table 2 (4.2-9.2 mg/ml, 14 mM) as well as labelling compounds (7a), (7b) and (7c) (approximately 15 mM) were prepared freshly in anhydrous dimethylsulfoxide (DMSO) for each labelling experiment. Likewise, a stock solution of insulin (200 μg/ml, 35 μM; bovine insulin, MW 5733,49; Sigma-Aldrich, Taufkirchen, FRG) in 50 mM phosphate buffer, pH 7.2, 0.02 mM ethylenediaminetetraacetic acid (EDTA) (PBS/EDTA) was prepared. For labelling, insulin (35 nMoles, representing 105 nMoles amino functions (2 NH2-termini (chain A and B), 1 lysine side chain)) was reacted with active esters (350 nMoles) in a final volume of 1.25 ml PBS/EDTA, containing no more than 2% (v/v) DMSO in any experiment. The solutions were mixed on an end-to-end mixer for 90 min at RT and the labelling reactions were terminated by addition of glycine (1 mMole) in PBS/EDTA. Mixing was continued for 60 min at RT before the solution was dialyzed against PBS/EDTA (MWCO 2,000). After another dialysis against water, the heterogeneity of the samples and the molecular masses of the products were determined in MALDI-TOF-MS analyses (Bruker-Reflex II instrument; Bruker-Daltonik, Bremen, FRG). The mean labelling degree was calculated as described elsewhere (Olivier V, Meisen I, Meckelein B, Hirst T R, Peter-Katalinic J, Schmidt M A, Frey A (2003). Influence of targeting ligand flexibility on receptor binding of particulate drug delivery systems. Bioconjug Chem. 14:1203-8.) (Table 6).

A short description of series [1]: Hydrolysis half-lifes of active ester derivatives by 1H-NMR. The series is classed as physicochemical. The note with it: 50 mM deuterated phosphate buffer, pD 7.2, room temperature, 1 mM active ester. As to the method:
The hydrolysis half-lifes of active ester derivatives in physiological buffer were determined by ^1H-NMR spectroscopy. For this purpose a 50 mM phosphate buffer in deuterium oxide (D2O, […]) (deutero, Kastellaun, FRG), pD 7.2, was prepared. The phosphate salts were lyophilized thrice from fresh deuterium oxide. Finally, fresh D2O was added and the pD value was verified. […] To initiate the hydrolysis reaction 10 μl of these solutions were added to 490 μl of 50 mM deuterated phosphate-buffer, pD 7.2, spiked with 3-(trimethylsilyl)-1-propanesulfonic acid-D6 sodium salt (TMSPS) (Merck, Darmstadt, FRG) (0.1 mg/ml) as internal reference, resulting in a final concentration of active ester derivatives of 1 mM. The hydrolysis of the active esters was monitored at room temperature by ^1H-NMR spectroscopy with an Avance DRX-600 system (Bruker BioSpin, Rheinstetten, FRG) at 600 MHz. The first ^1H-spectrum was recorded 6-12 min after addition of the phosphate buffer, additional spectra were recorded at about 20, 40, 60, 120, 240, 360 and 1000-1600 min (over night). After the last measurement the pD-value was verified again. The hydrolysis reaction of each active ester derivative was measured in 2-3 independent experiments.
The Bruker software X-WIN-NMR (V 2.5; Bruker BioSpin) was used to acquire and process the data recorded at different time points. For this purpose, signals which were altered in intensity or chemical shift due to deuterolysis and which were not superimposed by signals of other nuclei were integrated and put in relation to the internal standard TMSPS. The concentration of the non-hydrolyzed active ester derivatives was calculated from the change of peak integrals and was plotted versus time.

Series [2] addresses T2, Streptavidin AlexaFluor680 (Streptomyces avidinii, UniProt P22629). Nature of the series: Dot blot detection of hydrazide-labelled glycoprotein (porcine mucin) on nitrocellulose. The note with it: periodate-oxidized mucin, mean ± SEM.
Method: All subsequent treatments of the membranes were carried out in tight fitting trays. For oxidation or the carbohydrate moieties of the glycoprotein the membranes were incubated for 20 min at RT in 3 ml (0.21 ml/cm^2 membrane) 10 mM sodium m-periodate (Sigma-Aldrich, Taufkirchen, FRG) in 100 mM sodium acetate buffer (pH 5). They were washed another 3× in D-PBS, incubated each for 60 min at RT with 3 ml (0.21 ml/cm^2 membrane) of 2.5 μM labelling-hydrazide (Table 4) in 100 mM sodium acetate buffer (pH 5), washed again 3× in D-PBS and blocked with 1% (w/v) Casein (Hammarsten grade, BDH, Poole, UK) in D-PBS (Casein-PBS) for 30 min at RT. Blocked membranes were incubated for 90 min at RT with 4 ml (0.28 ml/cm^2 membrane) diluted monoclonal antibodies against 2,4-dichlorophenoxyacetic acid or monoclonal antibodies against DIG or with AlexaFluor680-labelled streptavidin (for working concentrations see Table 3) in Casein-PBS and washed 3× with D-PBS. […] After intense washing with D-PBS fluorescence was read out on a fluorescence imager (Odyssey Infrared Imager, LI-COR Biosciences, Lincoln, Nebr., USA) and quantitated with an appropriate image analysis software (Odyssey Software v.1.2). Statistical analysis of the data was carried out with the GraphPad Prism Suite (v.4.0.0, GraphPad Software, San Diego, Calif., USA).
For the next series, the target named is T3, streptavidin-HRP (Streptomyces avidinii, UniProt P22629).
T3 construct: purchased Vector Labs, Burlingame, Calif., USA
Nature of the series: Detection of active ester-labelled insulin on PVDF filterplates (HRP/TMB). The format is binding. The note with it: for Detection limit of labelled protein: insulin conjugate on PVDF, mean ± SEM; for Detection limit of label: insulin conjugate, converted from pg protein with labelling degree (Table 6). As to the method:
as §1
The concentrations of the labelled polypeptides were determined by standard assays and serial dilutions of the solutions were prepared in PBS/EDTA. Equal amounts of the diluted solutions (1,000-0.12 ng conjugate/well, each in 50 μl PBS/EDTA) were applied onto 96-well polystyrene filterplates equipped with polyvinylidene fluoride (PVDF) membrane bottoms (Corning, Corning, N.Y., USA), which had been pre-activated with 70% (v/v) ethanol and washed with phosphate buffer. The plates were incubated for 30 min at room temperature before the solutions were sucked through the membranes with a MultiScreen vacuum manifold (Millipore, Schwalbach, FRG). […] Nonspecific binding sites were blocked with 200 μl/well 2% (w/v) caseinate in D-PBS (Caseinate-PBS) for 30 min at RT and the solutions were removed. […] After the plates were washed another 6× with PBST with the vacuum manifold and 6× with D-PBS with the plate washer, color was developed at room temperature in the dark with 75 μl/well of a highly sensitive tetramethylbenzidine-based substrate reagent (1 mM 3,3′,5,5′-tetramethylbenzidine, 3 mM H2O2 in 200 mM potassium citrate, pH 4.0; (Frey A, Meckelein B, Externest D, Schmidt M A (2000). A stable and highly sensitive 3,3′,5,5′-tetramethylbenzidine-based substrate reagent for enzyme-linked immunosorbent assays. J Immunol Methods. 233:47-56.)). The reaction was terminated after 30 min with 125 μl/well 1 M sulfuric acid.

For series [3], the target named is T2, Streptavidin AlexaFluor680. Nature of the series: Dot blot detection of active ester-labelled ovalbumin on nitrocellulose. The series is classed as binding. Also noted: purchased Invitrogen. The note with it: ovalbumin conjugate, mean ± SEM. As to the method:
Stock solutions of 65-100 mg/ml (120-330 mM) active ester of the labelling compounds (Table 2) were prepared freshly in anhydrous dimethylsulfoxide (DMSO) for each labelling experiment. […] For labelling 100 nMoles ovalbumin (representing 2 μMoles amino functions) were reacted with 1.5 μMoles of active ester in a final volume of 300 μl 100 mM sodium tetraborate, pH 8.2, containing no more than 5% (v/v) DMSO in any experiment. The solutions were mixed on an end-to-end mixer for 180 min at RT and the labelling reactions were terminated by addition of 1.5 mmoles glycine in sodium tetraborate buffer. Mixing was continued overnight at 4° C. before the solutions were dialyzed against sodium tetraborate buffer. The concentrations of the labelled protein were determined by standard assays and serial dilutions of the stock solutions were prepared.

T2 sequence (P22629 25-183): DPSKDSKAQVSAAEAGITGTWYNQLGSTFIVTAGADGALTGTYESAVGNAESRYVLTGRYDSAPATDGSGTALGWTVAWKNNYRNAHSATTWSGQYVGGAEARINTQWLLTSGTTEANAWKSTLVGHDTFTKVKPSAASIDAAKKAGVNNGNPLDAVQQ
T3 sequence (P22629 25-183): as above
T1 sequence (P01317 25-54 limits assumed): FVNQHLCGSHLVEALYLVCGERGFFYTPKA
T1 sequence (P01317 85-105 limits assumed): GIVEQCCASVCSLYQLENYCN

`O=C(COc1ccc(Cl)cc1Cl)ON1C(=O)CCC1=O` [(1b)]: on insulin, the Mean labelling degree is recorded as 0.52 Mole label: Mole insulin. The Hydrolysis half-life in series [1] stood at 25 min.
On the same counts, the results for `O=C(COc1ccc(Cl)cc1Cl)NCCCCCC(=O)ON1C(=O)CC(S(=O)(=O)[O-])C1=O.[Na+]` (centres unmarked) [(3b), 6-(2-(2,4-dichlorophenoxy)acetylamino)-hexanoic acid-N-hydroxysulfosuccinimidyl-ester-sodium Salt] are 1.61 Mole label: Mole insulin and 231^(*^) min.
Consider `O=C(COc1ccc(Cl)cc1Cl)NCCCCCCCCCCC(=O)ON1C(=O)CC(S(=O)(=O)[O-])C1=O.[Na+]` (centres unmarked) [(3d), 11-(2-(2,4-dichlorophenoxy)acetylamino)-undecanoic acid-N-hydroxysulfosuccinimidyl-ester-sodium Salt], for which, at insulin, the Mean labelling degree is on record as 0.38 Mole label: Mole insulin.
With `NNC(=O)CCCCCNC(=O)CCCC[C@@H]1SC[C@@H]2NC(=O)N[C@@H]21` [Biotin-C6 hydrazide, LC-(+)-Biotinoylhydrazide], the “Detection limit of proteins after labelling with hydrazide derivatives” value in series [2] is listed as 49.1 ± 6.3^ pg.
`C[C@]12CC[C@H](OCC(=O)NCCCCCC(=O)ON3C(=O)CCC3=O)C[C@H]1CC[C@@H]1[C@@H]2C[C@@H](O)[C@]2(C)[C@@H](C3=CC(=O)OC3)CC[C@]12O` [DIG-C6-NHS, Digoxigenin-3-O-methylcarbonyl-ε-aminocaproyl-N-hydroxysuccinimide]: the Mean labelling degree at insulin is reported as 1.50 Mole label: Mole insulin. In addition, in series [1], the Hydrolysis half-life is given as 248^(*^) min.
`O=C(CCCCCNC(=O)CCCC[C@@H]1SC[C@@H]2NC(=O)N[C@@H]21)NCCCCCC(=O)ON1C(=O)CCC1=O` [NHS-SLC-biotin, SLC-NHS-(+)-Biotin]: the Mean labelling degree at insulin is listed as 0.08 Mole label: Mole insulin. Besides, on streptavidin-HRP, the “Detection limit of labelled protein” value is 1,277,778.0 ± 237,333.4 pg and the “Detection limit of label” value is reported as 17,829.0 ± 3,311.5 fMole. Further, the “Detection limit of proteins after labelling with active ester derivatives” value (from here on “Detection limit … with active ester derivatives”) in series [3] turned out to be 39063.0 ± 5508.0 pg.
As to `O=C(CCCC[C@@H]1SC[C@@H]2NC(=O)N[C@@H]21)NCCCCCC(=O)ON1C(=O)CC(S(=O)(=O)[O-])C1=O.[Na+]` (stereo partly drawn) [Sulfo-NHS-LC-biotin, Sulfo-LC-(+)-Biotin], at insulin, the Mean labelling degree was 1.72 Mole label: Mole insulin. Further, in series [1], the Hydrolysis half-life came out at 101 min. Moreover, at streptavidin-HRP, the “Detection limit of labelled protein” value is given as 33,854.2 ± 6,107.3 pg and the “Detection limit of label” value is reported as 10,156.0 ± 1,832.1 fMole. In series [3], the “Detection limit … with active ester derivatives” value was 248.0 ± 66.6 pg.
Take `O=C1N[C@H]2[C@H](CS[C@H]2CCCCC(=O)ON2C(=O)CC(S(=O)(=O)[O-])C2=O)N1.[Na+]` (stereo partly drawn) [Sulfo-NHS-biotin, Sulfo-Succinimidyl-(+)-biotin]: the Mean labelling degree on insulin is on record as 1.79 Mole label: Mole insulin. This compound also yielded a Hydrolysis half-life in series [1] of 62 min. Besides, on streptavidin-HRP, the “Detection limit of labelled protein” value is listed as 62,500.0 ± 15,343.4 pg and the “Detection limit of label” value is recorded as 19,512.6 ± 4,790.2 fMole. Also, the “Detection limit … with active ester derivatives” value in series [3] amounted to 246.5 ± 67.2 pg.
On to “SLC-(+)-Biotinoylhydrazide [Biotin-C11 hydrazide]”, for which the “Detection limit of proteins after labelling with hydrazide derivatives” value in series [2] is 114.6 ± 10.4^ pg.
